Source: patent US10391160B2, “Dimethyl fumarate and vaccination regimens” (Biogen MA Inc., priority 2014, dated 2019)

Experiment: healthy volunteer study of flushing on DMF dosing with aspirin pre-treatment
Assay type: in vivo, human
Settings: 325 mg non-enteric coated aspirin 30 minutes prior to DMF dosing; healthy volunteers
Procedure: Subjects receiving a vaccine who experience flushing may be administered (e.g., 30 min. prior to DMF dosing) about 325 mg of aspirin to reduce flushing. Some patients who experience flushing with gastrointestinal side effects may reduce the dose to 120 mg DMF BID temporarily. Within a month, the effective dose of 240 mg DMF BID should be resumed.

In the case of CC(=O)Oc1ccccc1C(=O)O [aspirin], the “occurrence and severity of flushing” value is reported as “reduce the occurrence and severity of flushing”.
